Here are results for 2 compounds from patent publication US7348427B2, “Antipathogenic benzamide compounds” (Genesoft Pharmaceuticals, Inc., priority 2001, dated 2008).

The structures appear in SMILES notation. pKd: −log10 of the molar value. Converted amounts (≈) assume the structure as drawn.

The test system of assay [1] is Bacillus cereus (ATCC 11778). The assay is described as follows: MIC, NCCLS broth microdilution assay. Format: cell-based. Conditions: A = B. cereus ATCC 11778. The method in brief:
(§1)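 MIC determined by broth microdilution in microtiter plates per NCCLS documents M7-A4, M11-A4 (1997) and M27-T (1995). Antifungal testing against the yeast followed the method recommended in the Manual of Clinical Microbiology (1995).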
A general note: In broth dilution the organism is exposed to a series of concentrations in liquid medium.

Assay [2] concerns Enterococcus faecium (ATCC 51559, a vancomycin resistant strain (VRE)). The assay is described as follows: MIC, NCCLS broth microdilution assay. Format: cell-based. Conditions: D = E. faecium ATCC 51559. The essentials:
as §1

For assay [3], the system named is Staphylococcus aureus (ATCC 13709, a methicillin sensitive strain (MSSA)). The assay is described as follows: MIC, NCCLS broth microdilution assay. Format: cell-based. Conditions: E = S. aureus ATCC 13709. The essentials:
as §1

The subject of assay [4] is Staphylococcus aureus (ATCC 27660, a methicillin resistant strain (MRSA)). The assay is described as follows: MIC, NCCLS broth microdilution assay. In kind it is cell-based. As to conditions: F = S. aureus ATCC 27660. The method in brief: as §1
The test system of assay [5] is Staphylococcus epidermidis (ATCC 12228). Briefly: MIC, NCCLS broth microdilution assay. In kind it is cell-based. Conditions: G = S. epidermidis ATCC 12228. The essentials: as §1
For assay [6], the system named is Streptococcus pneumoniae (ATCC 51422, a penicillin resistant strain (PRSP)). The assay is described as follows: MIC, NCCLS broth microdilution assay. As to conditions: I = S. pneumoniae ATCC 51422. In kind it is cell-based. The method in brief: as §1
Assay [7] concerns Candida albicans (ATCC 38247). The assay is described as follows: Antifungal MIC assay. Format: cell-based. As to conditions: B = C. albicans ATCC 38247. The essentials:
as §1

In assay [8] the target is dsDNA target sequence AATACT (310 bp fragment, Plasmid A). The assay is described as follows: Quantitative DNase I footprint titration, dsDNA binding. As to conditions: 310 bp/A, 22° C., pH 7.0, read-out: Dissociation Constant Kd.
In assay [9] the target is dsDNA target sequence AATTAATCAT (352 bp fragment, Plasmid B). Described as above. As to conditions: 352 bp/B, 22° C., pH 7.0, read-out: Dissociation Constant Kd.
The subject of a further assay is E. faecalis ATCC 29212. Briefly: MIC, NCCLS broth microdilution assay. Format: cell-based, Enterococcus faecalis. Conditions: C = E. faecalis ATCC 29212. The method in brief: (§2)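 Broth microdilution per NCCLS M7-A4 (1997) guidelines; MIC recorded as minimal inhibitory concentration.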
The test system of another assay is S. pneumoniae ATCC 49619. The assay is described as follows: MIC, NCCLS broth microdilution assay. In kind it is cell-based, Streptococcus pneumoniae. As to conditions: H = S. pneumoniae ATCC 49619. The method in brief: as §2
Setting [10] is: Staphylococcus aureus, read-out: Minimum Inhibitory Concentration (MIC).

In the case of `Cn1cc(NC(=O)c2cc(NC(=O)c3cc(NC(=O)c4ccc(Cl)cc4F)c[nH]3)cn2C)cc1C(=O)NCCN1CCOCC1` [Compound A-3], the MIC in assay [1] (Bacillus cereus, ATCC11778, read-out: Minimum Inhibitory Concentration (MIC)) was not above 4 µg/mL; in [2] (Enterococcus faecium, read-out: Minimum Inhibitory Concentration (MIC)), not above 4 µg/mL; in [3] (setting [10]) it was not above 4 µg/mL; in [4] (setting [10]) it was not above 4 µg/mL; in assay [5] (Staphylococcus epidermidis, ATCC12228, read-out: Minimum Inhibitory Concentration (MIC)), not above 4 µg/mL; in [6] (Streptococcus pneumoniae, read-out: Minimum Inhibitory Concentration (MIC)), not above 4 µg/mL. Moreover, the MIC in [7] (Candida albicans, ATCC38247, read-out: Minimum Inhibitory Concentration (MIC)) is 12 to 32 µg/mL (≈ 18.8 to 50.1 µM); in the assay with E. faecalis ATCC 29212 (Enterococcus faecalis, ATCC29212, read-out: Minimum Inhibitory Concentration (MIC)) it was not above 4 µg/mL; in the assay on S. pneumoniae ATCC 49619 (Streptococcus pneumoniae, ATCC49619, read-out: Minimum Inhibitory Concentration (MIC)) it was not above 4 µg/mL. The values for the negative-log Kd (pKd) in [8] and in assay [9] were 8.30 and 9.00, respectively.
For `Cn1cc(NC(=O)c2cc(NC(=O)c3cc(NC(=O)c4ccc(F)cc4F)cn3C)cn2C)cc1C(=O)NCCN1CCCCCC1` [Compound B-18], the “Minimum Inhibitory Concentration (MIC)” value in [1], in assay [2], in assay [3], in assay [4], in assay [5] and in assay [6] was “+++ (+++ = MIC ≦ 4)” each time. In addition, the “Minimum Inhibitory Concentration (MIC)” value was “++ (++ = 4 < MIC < 12)” in assay [7], “+++ (+++ = MIC ≦ 4)” in the assay on E. faecalis ATCC 29212 and “+++ (+++ = MIC ≦ 4)” in the assay with S. pneumoniae ATCC 49619. For the same compound, in assay [9], the pKd was 8.70.

For orientation: pKd means the negative decadic logarithm of the Kd, by convention in mol/L.
